Measurements taken from paper PMC5120670 (European journal of medicinal chemistry, 2016).
Blank lines part the entries; values can stand above or below the compound they belong to.

Assays:
[1] = target: T1, T. brucei methionyl-tRNA synthetase (TbMetRS) (Trypanosoma brucei brucei, UniProt Q38C91); test: Enzyme inhibition assay; type: biochemical
T1 sequence (Q38C91 1-773): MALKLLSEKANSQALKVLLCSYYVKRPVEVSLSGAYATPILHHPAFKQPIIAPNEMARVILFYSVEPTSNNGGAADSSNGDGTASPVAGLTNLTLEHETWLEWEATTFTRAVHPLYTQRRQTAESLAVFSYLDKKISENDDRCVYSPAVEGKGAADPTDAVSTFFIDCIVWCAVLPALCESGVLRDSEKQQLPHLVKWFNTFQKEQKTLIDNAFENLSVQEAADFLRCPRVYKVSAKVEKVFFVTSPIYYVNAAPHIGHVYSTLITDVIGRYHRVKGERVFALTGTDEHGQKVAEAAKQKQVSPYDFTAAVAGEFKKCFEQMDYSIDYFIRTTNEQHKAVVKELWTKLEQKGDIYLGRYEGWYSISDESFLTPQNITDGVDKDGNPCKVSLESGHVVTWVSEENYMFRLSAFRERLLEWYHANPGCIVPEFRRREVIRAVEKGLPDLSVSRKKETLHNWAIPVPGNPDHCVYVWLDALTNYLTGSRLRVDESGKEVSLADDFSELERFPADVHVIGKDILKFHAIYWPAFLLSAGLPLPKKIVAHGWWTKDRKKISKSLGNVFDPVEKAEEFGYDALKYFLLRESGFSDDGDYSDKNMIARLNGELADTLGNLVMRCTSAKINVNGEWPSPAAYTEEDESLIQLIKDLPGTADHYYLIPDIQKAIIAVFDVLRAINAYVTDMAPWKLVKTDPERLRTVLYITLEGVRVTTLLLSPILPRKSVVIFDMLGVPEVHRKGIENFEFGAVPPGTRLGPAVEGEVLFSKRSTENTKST

[2] = test system: T. brucei (bloodstream form strain 427); test: T. brucei growth inhibition assay; type: cell-based, Trypanosoma brucei; conditions: for cellular activity improvement compared to 3: relative to compound 3
PK studies in mice = type: in vivo; conditions: for AUC: mice, oral administration at 50 mg/kg
[3] = Distribution of compounds between mouse plasma and brain; type: in vivo; conditions: mice, 5 mg/kg IP, 60 min after injection
[4] = test system: hepatocellular carcinoma cell line (Hep G2); test: Mammalian cell growth inhibition assay, Hep G2; type: cell-based; conditions: Homo sapiens, HepG2, 48 h, read-out: Hep G2 EC50
[5] = test system: human lymphoblast cell line (CRL-8155); test: Mammalian cell growth inhibition assay, CRL-8155

Compound: O=C(Cc1cc(Cl)cc(Cl)c1)N1CCCC(c2nc3nc(Cl)ccc3[nH]2)C1 (stereo not drawn) [Compound 7, 1-(3-(5-chloro-1H-imidazo[4,5-b]pyridin-2-yl)piperidin-1-yl)-2-(3,5-dichlorophenyl)ethanone]
IC50 [1]: < 0.05 µM | cellular activity improvement compared to 3 [2]: approximately 5 fold

Compound: Clc1cc(Cl)cc(CNC2CCCC(c3nc4nc(Cl)ccc4[nH]3)C2)c1 (stereo not drawn) [Compound 12, 3-(5-chloro-1H-imidazo[4,5-b]pyridin-2-yl)-N-(3,5-dichlorobenzyl) cyclohexanamine]
lower EC50 compared to 6 ([2]; relative to compound 6): 4 fold

Compound: Clc1cc(Cl)cc(CCN2CCCC(c3nc4nc(Cl)ccc4[nH]3)C2)c1 (stereo not drawn) [Compound 10, 5-chloro-2-(1-(3,5-dichlorophenethyl)piperidin-3-yl)-1H-imidazo[4,5-b]pyridine]
decreased potency compared to 6 ([2]; relative to compound 6): around 3 fold

Compound: O=C(Cc1cc(Cl)cc(Cl)c1)N1CCCC(c2nc3cc(Cl)ccc3[nH]2)C1 (stereo not drawn) [Compound 6, 1-(3-(5-chloro-1H-benzo[d]imidazol-2-yl)piperidin-1-yl)-2-(3,5-dichlorophenyl) ethanone]
cellular activity improvement compared to 3 [2]: approximately 5 fold

Compound: Clc1cc(Cl)cc(CNC2CCCN(c3nc4nc(Cl)ccc4[nH]3)C2)c1 (stereo not drawn) [Compound 14, 1-(5-chloro-1H-imidazo[4,5-b]pyridin-2-yl)-N-(3,5-dichlorobenzyl)piperidin-3-amine]
IC50 [1]: < 0.05 µM | lower EC50 compared to compound 12 ([2]; relative to compound 12): ~ 4 fold

The next lines start with results.

IC50 [1]: < 0.05 µM | lower EC50 compared to R-isomer 15 ([2]; relative to compound 15): > 25 fold | AUC (PK studies in mice): 6223 min*µ mol/L | brain levels [3]: nearly undetectable
Compound: Clc1cc(Cl)cc(CN[C@H]2CCCN(c3nc4nc(Cl)ccc4[nH]3)C2)c1 [Compound 16, (S)-1-(5-chloro-1H-imidazo[4,5-b]pyridin-2-yl)-N-(3,5-dichlorobenzyl) piperidin-3-amine]

IC50 [1]: < 0.05 µM
Compound: Clc1cc(Cl)cc(CN[C@H]2CCN(c3nc4ccc(Cl)nc4[nH]3)C2)c1 [Compound 24, (S)-1-(5-chloro-3H-imidazo[4,5-b]pyridin-2-yl)-N-(3,5-dichlorobenzyl) pyrrolidin-3-amine]
more potent than the R-isomer 23 ([2]; relative to compound 23): ~ 6 fold

IC50 [1]: < 0.05 µM | EC50 ([2]; Trypanosoma brucei, 48 h): 0.022 µM | lower EC50 compared to compound 29 ([2]; relative to compound 29): ~ 3 fold | EC50 [4]: 39.2 µM | AUC (PK studies in mice): 952 min*µ mol/L | Cmax (PK studies in mice; mouse, whole blood, po, 50 mg/kg): 9.7 µM
Compound: CN(CCNCc1cc(Cl)cc(Cl)c1)c1nc2nc(Cl)ccc2[nH]1 [Compound 31, N1-(5-chloro-1H-imidazo[4,5-b]pyridin-2-yl)-N2-(3,5-dichlorobenzyl)-N1-methylethane-1,2-diamine]
EC50 ([5]; Homo sapiens, CRL8155, 48 h, read-out: CRL-8155 EC50): 22.6 µM | selectivity index ([5]; mammalian cells versus T. brucei): 1027
